Tested on: α-L-rhamnosidase from Penicillium sp. DSM 6826
Experiment: Influence of different substances on the activity of the purified α-L-rhamnosidase
Type: biochemical
Settings: control = 100
Experimental: p-Nitrophenyl-α-L-rhamnopyranoside is used as the substrate for detecting the α-L-rhamnosidase activity. 10 mg of this substrate are dissolved in 10 ml of ammonium acetate buffer (pH 5.5, 50 mM). 100 μl of culture filtrate or cell lysates are added to 900 μl of this solution and the mixture is then incubated at 40° C. After 0, 3, 6, 9 and 12 minutes, 200 μl are removed and mixed with 800 μl of 200 mM borate buffer, pH 9. The release-of p-nitrophenol is monitored photometrically at 410 nm; naringinase (following Romero et al. Anal. Biochem. 149 566-571 (1985)) was used as the control.
The investigations summarized in the table below were carried out using the purified enzyme.

Structure (SMILES): C[C@@H]1OC(O)[C@H](O)[C@H](O)[C@H]1O (single isomer, unassigned) [L-Rhamnose, 6-deoxy-L-mannose]
- % activity (substance at 0.5 M): 51%
- % activity (substance at 1.0 M): 39.5%
- % activity (substance at 1.5 M): 26.4%

Structure (SMILES): [Ca+2].[Cl-].[Cl-] [CaCl2]
- % activity (substance at 20 mM): 127%

Structure (SMILES): [Cl-].[Cl-].[Co+2] [CoCl2]
- % activity (substance at 2 mM): 41%

Structure (SMILES): [Cl-].[Cs+] [CsCl]
- % activity (substance at 2 mM): 96%

Structure (SMILES): [Cl][Cu][Cl] [CuCl2]
- % activity (substance at 0.5 mM): 40%

Structure (SMILES): O=C(O)CN(CCN(CC(=O)O)CC(=O)O)CC(=O)O [EDTA, reference compound]
- % activity (substance at 10 mM): 22%

Structure (SMILES): O=C(O)CN(CCOCCOCCN(CC(=O)O)CC(=O)O)CC(=O)O [EGTA, reference compound]
- % activity (substance at 10 mM): 60%

Structure (SMILES): O=S(=O)([O-])[O-].[Fe+2] [FeSO4]
- % activity (substance at 0.5 mM): 100%

Structure (SMILES): [Cl-].[K+] [KCl]
- % activity (substance at 100 mM): 69%

Structure (SMILES): O=S(=O)([O-])[O-].[Mg+2] [MgSO4]
- % activity (substance at 2 mM): 106%

Structure (SMILES): [Cl][Mn][Cl] [MnCl2]
- % activity (substance at 2 mM): 27%

Structure (SMILES): [Cl-].[Cl-].[Zn+2] [ZnCl2]
- % activity (substance at 2 mM): 65%
